Measured values: patent US8236354B1, “Use of immunomodulators for the treatment of cancer” (ZOR Pharmaceuticals, LLC, priority 2012, dated 2012)

Key:
[1] = in vivo
Description: (§1) VIRULIZIN® or placebo was administered as intramuscular injections of 3 mL with dosing 3 times weekly (Monday, Wednesday, Friday) in Stages 1, 2 and 3.
(§2) Following pain stabilization screening, all randomized patients in Stages 1 and 2 received 30-minute intravenous infusions of gemcitabine at a dose of 1 g/m2 weekly for the first 7 weeks, followed by a week of rest. Subsequent cycles consisted of 28-day cycles with gemcitabine dosing on days 1, 8 and 15. Guidelines for dose reduction in case of toxicity were provided from the Official Product Prescribing Guidelines. Dosing continued until intolerance to gemcitabine developed, or there was symptom progression, or no evidence of clinical benefit. […] The patient's physician made the decision concerning 5-FU chemotherapy or best supportive care.
Safety was evaluated based upon adverse events (AEs), laboratory tests, and vital signs.

[2] = system: advanced (unresectable or metastatic) pancreatic adenocarcinoma; test: Phase 3 double-blind, randomized, placebo-controlled 3-stage trial: survival and time to symptom progression; assay type: in vivo, human; settings: for Median survival time from entry into study Stage 3 to death from any cause: Stage 3 test product with or without 5-FU
Description: This was a double-blind, multicenter, randomized, 2-arm, parallel group, 3-stage trial. Median survival was the primary end-point calculated from Kaplan-Meier plots of survival of the Intention to Treat data set.
The blood pharmacokinetic profiles of gemcitabine and VIRULIZIN® were assessed by an independent (unblinded) pharmacokinetics assessor. Stage 1 was performed at selected sites. Immune stimulation assays were also to be performed in these patients.
The decision to discontinue patients from Stage 2 and move them into Stage 3 and to continue or discontinue study treatment was at the discretion of the investigator.
However, if the investigator believed further chemotherapy was not in the best interest of the patient (based on hematological profile, symptom progression or no evidence of clinical benefit), the patient continued to receive best supportive care, with or without continued injections of VIRULIZIN® or placebo. The first 18 patients entering Stage 3 and receiving VIRULIZIN® or placebo plus intravenous infusions of 5-FU were to have blood samples taken to assess the pre- and post-dose plasma concentrations of 5-FU.
Male or female patients, aged 18 years or older, with advanced (unresectable or metastatic) pancreatic adenocarcinoma (tumor staging definition—tumor, lymph nodes, metastasis [TNM] stages II, III or IV) who had not received previous systemic chemotherapy, who had Eastern Cooperative Oncology Group (ECOG) Score 0, 1 or 2, and life expectancy greater than or equal to 12 weeks were included in the study.
as §1, §2
Efficacy was evaluated based upon survival time, defined as the time from Baseline/Treatment Day 1 to the time of death from any cause. Time to progression of symptoms, consisting of: time to increase in pain (with consideration of analgesic consumption), time to deterioration in ECOG score, and time to weight loss.

[3] = Efficacy evaluable, ECOG 0 or 1, value (95% CI)
[4] = Efficacy evaluable, Overall, value (95% CI)
[5] = Intention to Treat, ECOG 0 or 1, value (95% CI)
[6] = Intention to Treat, Metastatic, value (95% CI)
[7] = Intention to Treat, Overall, value (95% CI)

## Nc1ccn([C@@H]2O[C@H](CO)[C@@H](O)C2(F)F)c(=O)n1 [Placebo plus gemcitabine, gemcitabine]
[1]
  Abdominal pain (not otherwise specified): (%) of Patients: (26.2) %
  Abdominal pain (not otherwise specified): Number of Events: 96
  Abdominal pain (not otherwise specified): Number of Patients: 56
  Abdominal pain upper: (%) of Patients: (11.7) %
  Abdominal pain upper: Number of Events: 35
  Abdominal pain upper: Number of Patients: 25
  Alanine aminotransferase increased: (%) of Patients: (7.0) %
  Alanine aminotransferase increased: Number of Events: 21
  Alanine aminotransferase increased: Number of Patients: 15
  Anemia (not otherwise specified): (%) of Patients: (43.9) %
  Anemia (not otherwise specified): Number of Events: 206
  Anemia (not otherwise specified): Number of Patients: 94
  Anorexia: (%) of Patients: (23.8) %
  Anorexia: Number of Events: 71
  Anorexia: Number of Patients: 51
  Ascites: (%) of Patients: (17.8) %
  Ascites: Number of Events: 51
  Ascites: Number of Patients: 38
  Aspartate aminotransferase increased: (%) of Patients: (8.9) %
  Aspartate aminotransferase increased: Number of Events: 27
  Aspartate aminotransferase increased: Number of Patients: 19
  Back pain: (%) of Patients: (9.8) %
  Back pain: Number of Events: 30
  Back pain: Number of Patients: 21
  Blood alkaline phosphatase increased (not otherwise specified): (%) of Patients: (9.8) %
  Blood alkaline phosphatase increased (not otherwise specified): Number of Events: 28
  Blood alkaline phosphatase increased (not otherwise specified): Number of Patients: 21
  Constipation: (%) of Patients: (18.7) %
  Constipation: Number of Events: 57
  Constipation: Number of Patients: 40
  Dehydration: (%) of Patients: (8.9) %
  Dehydration: Number of Events: 26
  Dehydration: Number of Patients: 19
  Diarrhea (not otherwise specified): (%) of Patients: (21.5) %
  Diarrhea (not otherwise specified): Number of Events: 79
  Diarrhea (not otherwise specified): Number of Patients: 46
  Disease progression (not otherwise specified): (%) of Patients: (11.7) %
  Disease progression (not otherwise specified): Number of Events: 25
  Disease progression (not otherwise specified): Number of Patients: 25
  Dyspnea (not otherwise specified): (%) of Patients: (15.4) %
  Dyspnea (not otherwise specified): Number of Events: 46
  Dyspnea (not otherwise specified): Number of Patients: 33
  Edema peripheral: (%) of Patients: (24.3) %
  Edema peripheral: Number of Events: 76
  Edema peripheral: Number of Patients: 52
  Fatigue: (%) of Patients: (36.0) %
  Fatigue: Number of Events: 178
  Fatigue: Number of Patients: 77
  Headache (not otherwise specified): (%) of Patients: (6.5) %
  Headache (not otherwise specified): Number of Events: 42
  Headache (not otherwise specified): Number of Patients: 14
  Jaundice (not otherwise specified): (%) of Patients: (11.7) %
  Jaundice (not otherwise specified): Number of Events: 30
  Jaundice (not otherwise specified): Number of Patients: 25
  Leukopenia (not otherwise specified): (%) of Patients: (13.6) %
  Leukopenia (not otherwise specified): Number of Events: 67
  Leukopenia (not otherwise specified): Number of Patients: 29
  Nausea: (%) of Patients: (42.1) %
  Nausea: Number of Events: 269
  Nausea: Number of Patients: 90
  Neutropenia: (%) of Patients: (32.2) %
  Neutropenia: Number of Events: 212
  Neutropenia: Number of Patients: 69
  Pyrexia: (%) of Patients: (30.4) %
  Pyrexia: Number of Events: 184
  Pyrexia: Number of Patients: 65
  Rash (not otherwise specified): (%) of Patients: (9.3) %
  Rash (not otherwise specified): Number of Events: 26
  Rash (not otherwise specified): Number of Patients: 20
  Rigors: (%) of Patients: (15.4) %
  Rigors: Number of Events: 97
  Rigors: Number of Patients: 33
  Thrombocytopenia: (%) of Patients: (29.9) %
  Thrombocytopenia: Number of Events: 196
  Thrombocytopenia: Number of Patients: 64
  Vomiting (not otherwise specified): (%) of Patients: (29.4) %
  Vomiting (not otherwise specified): Number of Events: 141
  Vomiting (not otherwise specified): Number of Patients: 63
  Weakness: (%) of Patients: (23.8) %
  Weakness: Number of Events: 82
  Weakness: Number of Patients: 51
  Weight decreased: (%) of Patients: (12.1) %
  Weight decreased: Number of Events: 38
  Weight decreased: Number of Patients: 26
[2]; [3]
  Median survival time, study enrollment to death from any cause: 6.3 (5.0 to 7.2) months
  Percent 12-Month Survival: 20.1 (12.8 to 27.4) %
[2]; Efficacy evaluable, ECOG 2, value (95% CI)
  Median survival time, study enrollment to death from any cause: 5.5 (4.3 to 7.4) months
[2]; Efficacy evaluable, Locally advanced disease, value (95% CI)
  Median survival time, study enrollment to death from any cause: 8.1 (7.1 to 11.2) months
[2]; Efficacy evaluable, Metastatic disease, value (95% CI)
  Median survival time, study enrollment to death from any cause: 5.0 (4.3 to 6.0) months
[2]; Efficacy evaluable, Metastatic, value (95% CI)
  Percent 12-Month Survival: 10.9 (5.4 to 16.4) %
[2]; [4]
  Median survival time, study enrollment to death from any cause: 6.0 (5.1 to 7.0) months
  Percent 12-Month Survival: 16.9 (11.2 to 22.6) %
[2]; Efficacy evaluable, Patients participating in study Stage 3, value (95% CI)
  Median survival time, study enrollment to death from any cause: 7.4 (6.8 to 8.6) months
[2]; FIG. 5, 248 Intention to Treat patients who participated in study Stage 3
  median duration of participation in study Stages 1 and/or 2: 6.31 months
[2]; FIG. 6, Stage 3 participants, High ECOG score of 2
  median duration of participation in study Stages 1 and/or 2: 6.31 months
[2]; FIG. 6, Stage 3 participants, Low ECOG score of 0 or 1
  median duration of participation in study Stages 1 and/or 2: 7.13 months
[2]; [5]
  Median survival time from study enrollment to death from any cause: 6.4 (5.0 to 7.3) months
  Percent 12-Month Survival: 21.1 (14.3 to 28.0) %
[2]; Intention to Treat, ECOG 0 or 1, value (95% CI), listed as placebo and gemcitabine
  Median survival time from study enrollment to death from any cause: 6.4 months
[2]; Intention to Treat, ECOG 0 or 1, value (95% CI), listed as placebo plus gemcitabine
  Median survival time from study enrollment to death from any cause: 6.4 months
[2]; Intention to Treat, ECOG 2, value (95% CI)
  Median survival time from study enrollment to death from any cause: 5.1 (4.1 to 6.8) months
[2]; Intention to Treat, ECOG 2, value (95% CI), listed as placebo and gemcitabine
  Median survival time from study enrollment to death from any cause: 5.1 months
[2]; Intention to Treat, ECOG 2, value (95% CI), listed as placebo plus gemcitabine
  Median survival time from study enrollment to death from any cause: 6.4 months
[2]; Intention to Treat, ECOG score of 0 or 1
  time to progression of pain from time of randomization: 9.0 mo
[2]; Intention to Treat, Locally advanced, value (95% CI)
  Median survival time from study enrollment to death from any cause: 8.4 (7.1 to 11.2) months
[2]; [6]
  Median survival time from study enrollment to death from any cause: 5.0 (4.3 to 6.0) months
  Percent 12-Month Survival: 13.3 (8.0 to 18.6) %
[2]; [7]
  Median survival time from study enrollment to death from any cause: 6.0 (5.1 to 7.0) months
  Percent 12-Month Survival: 17.7 (12.3 to 23.0) %
[2]; Intention to Treat, Overall, value (95% CI), listed as placebo plus gemcitabine
  Median survival time from study enrollment to death from any cause: 6.0 months
[2]; Intention to Treat, Patients participating in study Stage 3, value (95% CI)
  Median survival time from study enrollment to death from any cause: 7.5 (6.8 to 9.4) months
[2]; Intention to Treat, Patients participating in study Stage 3, value (95% CI), listed as placebo plus gemcitabine
  Median survival time from study enrollment to death from any cause: 7.5 months
[2]; Intention to Treat, ECOG 0 or 1
  Median survival time from entry into study Stage 3 to death from any cause: 3.19 months
[2]; Intention to Treat, ECOG 2
  Median survival time from entry into study Stage 3 to death from any cause: 2.79 months
[2]; Intention to Treat, Overall
  Median survival time from entry into study Stage 3 to death from any cause: 2.96 months
[2]; Intention to Treat, patients participating in study Stage 3, ECOG 0 or 1
  Median survival time from study enrollment to death from any cause: 7.13 months
[2]; Intention to Treat, patients participating in study Stage 3, ECOG 2
  Median survival time from study enrollment to death from any cause: 6.31 months
